In patent publication US9353075B2, “Disubstituted beta-lactones as inhibitors of N-acylethanolamine acid amidase (NAAA)” (The Regents of the University of California, priority 2011, dated 2016):
Entries after “also recorded” stand apart in the source; their conditions may differ.

Experiments:
DNFB-induced dermatitis = assay: DNFB contact dermatitis in mice, ear thickness; assay type: in vivo, mouse
Method: 2,4-dinitrofluorobenzene (DNFB) (Sigma-Aldrich, Italy) was dissolved in acetone. On day 1 and 2, mice (CD1, 25-30 g, Charles River, Calco, Italy) were sensitized on the skin of the abdomen with hapten (20 μL of 0.5% DNFB). After 5 days, on day 7, mice were challenged with hapten (20 μL of 0.2% DNFB) in the earlobe and treated with drugs to be tested. Control group received the vehicle used to dissolve drugs. Mice (five per group) were placed in a plastic cage. On day 8, ear thickness was determined after challenge using a caliper. Results are expressed as absolute ear thickness.
Fresh drug suspensions of compound 6 were prepared immediately before use in a vehicle consisting of petrolatum plus 5% lauric acid and given in a volume of 20 μL/mouse. Mice were treated with different concentrations of compound 6 or vehicle together with DNFB challenge on […].
Compound 6 and the reported β-lactone NAAA inhibitor (S)-OOPP (Solorzano et al., Proceedings of the National Academy of Science USA 2009, 106, 20966-20971; Solorzano et al., Journal of Medicinal Chemistry 2010, 53, 5770-5781) were tested in this model for their contact sensitivity response. Fresh drug solutions of (S)-OOPP and compound 6 were prepared immediately before use in polyethylene glycol 400 (PEG 400) and given in a volume of 20 μL/ear. Mice were treated with different concentrations of (S)-OOPP, 0.1% compound 6 or vehicle each day for 7 days. Ear thickness was determined on day 0 and every day before challenge using a caliper. Results are expressed as absolute ear thickness.
The methods included the following. Dermatitis was produced in mice using 2-4 dinitrofluorobenzene (DNFB) as described by Buckley and Nijkamp (1994), Am J Respir Grit Care Med 149:400-7. Mice were sensitized on two consecutive days with a 0.5% DNFB solution applied to the shaved abdomen. At day 8, the ears were challenged with a 0.2% DNFB solution. Ear thickness was determined by using a micrometer. Scratching was evaluated as number of episodes per 60 minutes period. Data were analysed by ANOVA followed by the Bonferroni's test. See also Hargreaves K, et al (1988), Pain 32: 77-88 for related information.

UVB-induced inflammation = assay: UV-B irradiation model in rats, plantar test; assay type: in vivo, rat
Method: Male Sprague Dawley rats (150-175 g, Charles River, Calco, Italy) were anaesthetized with a mixture of Tiletamine (15 mg/Kg) and Zolazepam (15 mg/Kg) administered in a single intra-peritoneal injection. Rats were then placed on their backs and shrouded in a UV opaque material with only the relevant surface of the plantar right hind paw exposed, perpendicular to the narrowband UVB light source situated above the level of the limb. The UVB source used for all experiments consisted of a bank of four TL01 fluorescent tubes (Philips, UK, λmax=312 nm) spaced 2.5 cm apart producing an even field of irradiation. The irradiance produced by the bulbs during each irradiation was determinate at the distance of the limb from the light source using a calibrate meter (I[…] with SEL240/UVB-1/TD filter, ABLE Instruments & Controls Ltd, UK). From this, the doses of UVB to which the rats were exposed were calculated. After plantar irradiation, nociceptive withdrawal responses to both thermal and mechanical stimuli were tested. Heat hypersensitivity was assessed using the rat plantar test equipment (Ugo Basile, Italy) following the method described by Hargreaves et al. (1988). […] Uninjured paw was always assessed first. […] The withdrawal threshold is calculated as the average of three consecutive tests with at list 5 minutes between each test. […]

[1] = system: IL-4, IL-5, IFN-g, and IgE blood levels; assay: Immune response in DNFB-induced dermatitis; assay type: in vivo, mouse; details: mice, topical
Method: The methods include the following. Dermatitis in mice was induced with 2-4 Dinitrofluorobenzene (DNFB) as previously described. IL-4, IL-5, IFN-g, and IgE blood levels were determined by immunoassays. The effect of compound 6 was tested using a single treatment protocol.

[2] = established DNFB-induced ear edema
[3] = repeated dosing, 8 days before DNFB challenge

Which “Doses of full efficacy, single dosing protocol” value (DNFB-induced dermatitis; [2]) does the source give for `C[C@@H]1OC(=O)[C@@H]1NC(=O)OCCCCCc1ccccc1` [Example 6, 5-phenylpentyl-[(2S,3R)-2-methyl-4-oxooxetan-3-yl]-carbamate] here?
The value was 10-30%.

And the “Effective dose-range, repeated dosing protocol” value (DNFB-induced dermatitis; [2])?
The value was 0.01-1%.

And the “Time of administration to full efficacy, repeated dosing” value (DNFB-induced dermatitis; [2])?
Its value is 3 days.

What about the “Ear swelling 24 h after DNFB challenge” value (DNFB-induced dermatitis; mice, 1-30% w/w suspension in petrolatum plus 5% lauric acid) of the same compound?
The value was “dose-dependently inhibited ear swelling”.

What about the “Contact sensitivity response (ear swelling)” value (DNFB-induced dermatitis; mice, PEG 400 solution, each day for 7 days, (S)-OOPP 0.1-10% w/v, compound 6 0.1%) of the same compound?
Its value is “significant decrease in ear swelling”.

And the “Established DNFB-induced ear edema (therapeutic effect), repeated dosing” value (DNFB-induced dermatitis; mice, topical, repeated dosing)?
Its value is “reverses ear thickness increase; also recorded: reverses established DNFB-induced ear edema”.

And the “Established DNFB-induced ear thickness increase, single dosing” value (DNFB-induced dermatitis; mice, topical, single administration)?
Its value is “reverses ear thickness increase; also recorded: efficacy is also noted”.

What about the “Doses of complete efficacy, prophylactic protocol” value (DNFB-induced dermatitis; [3]) of the same compound?
The value was 0.1-1%.

What about the “Prevention of DNFB-induced ear edema (prophylactic effect)” value (DNFB-induced dermatitis; [3]) of the same compound?
The value was “prevents the development of DNFB-induced symptoms; also recorded: prevents DNFB-induced increased ear edema”.

What about the “Thermal hyperalgesia induced by irradiation with 250 mJ/cm^2 of UVB” value (UVB-induced inflammation; 10 and 30% w/w, vs vehicle) of the same compound?
Its value is “significantly reduced”.

What about the UVB-induced inflammation (UVB-induced inflammation; topical suspension in vaseline oil plus 5% lauric acid) of the same compound?
Its UVB-induced inflammation is “dose-dependently reduced the UVB-induced inflammation”.

What about the “Dose range of full efficacy on immune response, single administration” value [1] of the same compound?
The value was 1 to 30%.

What about the “Effect on immune response compared with steroids” value [1] of the same compound?
The value was “superior to that of steroids”.

And the “Immunological responses in DNFB dermatitis” value [1]?
The value was “normalizes compromised immunological responses”.

What about the “DNFB-induced IFN-γ decrease” value ([1]; single dosing) of the same compound?
The value was “reverses DNFB-induced IFN-γ decrease”.

What about the “DNFB-induced IL-4 increase” value ([1]; single dosing) of the same compound?
Its value is “reverses DNFB-induced IL-4 increase”.

What about the “DNFB-induced IL-5 increase” value ([1]; single dosing) of the same compound?
Its value is “reverses DNFB-induced IL-5 increase”.

What about the “DNFB-induced IgE increase” value ([1]; single dosing) of the same compound?
The value was “reverses DNFB-induced IgE increase”.
